Measured values reported in US12780800B1, “Triazole-pyridinyl substituted azacyclohexyl acetic acid compounds as LPA receptor antagonists” (Viva Star Biosciences Limited, priority 2021, dated 2022).

Biological target: T1, LPA1 (Homo sapiens, UniProt Q92633)
T1 construct: ProLink (PK) beta-galactosidase enzyme-fragment tag; host or cells: CHO-K1
Test: LPA1 calcium flux assay (LPA1 functional antagonist assay)
Type: cell-based
Settings: PathHunter CHO-K1 EDG2 β-Arrestin cell line; calcium indicator dye; stimulated with EC80 concentration of LPA; FLIPR Tetra
Experimental: Following overnight culture, cells were loaded with calcium indicator dye from the HitHunter Calcium No WashPLUS Assay kit (Eurofins DiscoverX Corporation, Cat #93-0091) for 45 minutes at 37° C. […] After compound addition, assay plates were equilibrated to room temperature for 30 minutes. […] IC50 values were determined by Chemical and Biological Information System from ChemInnovation Software, Inc. The compounds of this invention were tested for their activity to inhibit LPA1 as determined in an LPA1 functional antagonist assay as described herein.

T1 sequence (Q92633 whole entry, the tested form may be a part): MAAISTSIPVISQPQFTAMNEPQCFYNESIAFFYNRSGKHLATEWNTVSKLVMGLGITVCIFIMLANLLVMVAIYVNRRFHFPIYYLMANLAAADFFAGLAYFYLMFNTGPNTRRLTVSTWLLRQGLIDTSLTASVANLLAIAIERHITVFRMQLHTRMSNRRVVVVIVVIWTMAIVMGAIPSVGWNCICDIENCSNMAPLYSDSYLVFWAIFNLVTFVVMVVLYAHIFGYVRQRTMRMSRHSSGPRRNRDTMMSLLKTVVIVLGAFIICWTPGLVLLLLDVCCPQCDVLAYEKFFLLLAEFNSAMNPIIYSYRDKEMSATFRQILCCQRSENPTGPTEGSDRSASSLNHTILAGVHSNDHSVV

| IC50 [nM] | SMILES |
| --- | --- |
| < 100 | CCCc1ccc(=O)n(Cc2c(-c3ccc(N4C[C@@H](CC(=O)O)CC(F)(F)C4)c(CC)n3)nnn2C)c1 [Example 6, (S)-2-(1-(2-ethyl-6-(1-methyl-5-((2-oxo-5-propylpyridin-1(2H)-yl)methyl)-1 H-1,2,3-triazol-4-yl)pyridin-3-yl)-5,5-difluoropiperidin-3-yl)acetic acid] |
| 500 to 5000 | CCCc1ccc(=O)n(Cc2c(-c3ccc(N4C[C@H](CC(=O)O)CC(F)(F)C4)c(CC)n3)nnn2C)c1 [Example 7, (R)-2-(1-(2-ethyl-6-(1-methyl-5-((2-oxo-5-propylpyridin-1(2H)-yl)methyl)-1H-1,2,3-triazol-4-yl)pyridin-3-yl)-5,5-difluoropiperidin-3-yl)acetic acid] |
| > 5000 | CCCc1ccn(Cc2c(-c3ccc(N4C[C@@H](CC(=O)O)CC(F)(F)C4)c(CC)n3)nnn2C)c(=O)c1 [Example 8, (S)-2-(1-(2-ethyl-6-(1-methyl-5-((2-oxo-4-propylpyridin-1(2H)-yl)methyl)-1 H-1,2,3-triazol-4-yl)pyridin-3-yl)-5,5-difluoropiperidin-3-yl)acetic acid] |
| > 5000 | CCc1nc(-c2nnn(C)c2Cn2ccc(CC3CC3)cc2=O)ccc1N1C[C@@H](CC(=O)O)CC(F)(F)C1 [Example 9, (S)-2-(1-(6-(5-((4-(cyclopropyImethyl)-2-oxopyridin-1(2H)-yl)methyl)-1-methyl-1H-1,2,3-triazol-4-yl)-2-ethylpyridin-3-yl)-5,5-difluoropiperidin-3-yl)acetic acid] |
| 100 to 500 | CCc1nc(-c2nnn(C)c2Cn2ccc(CC3CC3)c(C)c2=O)ccc1N1C[C@@H](CC(=O)O)CC(F)(F)C1 [Example 10, (S)-2-(1-(6-(5-((4-(cyclopropylmethyl)-3-methyl-2-oxopyridin-1(2H)-yl)methyl)-1-methyl-1H-1,2,3-triazol-4-yl)-2-ethylpyridin-3-yl)-5,5-difluoropiperidin-3-yl)acetic acid] |
| > 5000 | CCc1nc(-c2nnn(C)c2Cn2ccc(CC3CC3)c(C)c2=O)ccc1N1C[C@H](CC(=O)O)CC(F)(F)C1 [Example 11, (R)-2-(1-(6-(5-((4-(cyclopropylmethyl)-3-methyl-2-oxopyridin-1(2H)-yl)methyl)-1-methyl-1H-1,2,3-triazol-4-yl)-2-ethylpyridin-3-yl)-5,5-difluoropiperidin-3-yl)acetic acid] |
| < 100 | CCc1nc(-c2nnn(C)c2Cn2cc(CC(C)C)ccc2=O)ccc1N1C[C@@H](CC(=O)O)CC(F)(F)C1 [Example 12, (S)-2-(1-(2-ethyl-6-(5-((5-isobutyl-2-oxopyridin-1(2H)-yl)methyl)-l-methyl-1H-1,2,3-triazol-4-yl)pyridin-3-yl)-5,5-difluoropiperidin-3-y)acetic acid] |
| < 100 | CCc1nc(-c2nnn(C)c2Cn2cc(CC3CC3)ccc2=O)ccc1N1C[C@@H](CC(=O)O)CC(F)(F)C1 [Example 13, (S)-2-(1-(6-(5-((5-(cyclopropylmethyl)-2-oxopyridin-1(2H)-yl)methyl)-1-methyl-1H-1,2,3-triazol-4-yl)-2-ethylpyridin-3-yl)-5,5-difluoropiperidin-3-yl)acetic acid] |
| < 100 | CCc1nc(-c2nnn(C)c2Cn2cc(CC3CCC3)ccc2=O)ccc1N1C[C@@H](CC(=O)O)CC(F)(F)C1 [Example 14, (S)-2-(1-(6-(5-((5-(cyclobutylmethyl)-2-oxopyridin-1(2H)-y)methyl)-1-methyl-1H-1,2,3-triazol-4-yl)-2-ethylpyridin-3-yl)-5,5-difluoropiperidin-3-yl)acetic acid] |
| < 100 | CCc1nc(-c2nnn(C)c2Cn2cc(C3CC3)ccc2=O)ccc1N1C[C@@H](CC(=O)O)CC(F)(F)C1 [Example 15, (S)-2-(1-(6-(5-((5-cyclopropyl-2-oxopyridin-1(2H)-yl)methyl)-1-methyl-1H-1,2,3-triazol-4-yl)-2-ethylpyridin-3-yl)-5,5-difluoropiperidin-3-yl)acetic acid] |
| < 100 | CCc1nc(-c2nnn(C)c2Cn2cc(C(C)C)ccc2=O)ccc1N1C[C@@H](CC(=O)O)CC(F)(F)C1 [Example 16, (S)-2-(1-(2-ethyl-6-(5-((5-isopropyl-2-oxopyridin-1(2H)-yl)methyl)-1-methyl-1H-1,2,3-triazol-4-yl)pyridin-3-yl)-5,5-difluoropiperidin-3-yl)acetic acid] |
| < 100 | CCc1nc(-c2nnn(C)c2Cn2cc(C3CCC3)ccc2=O)ccc1N1C[C@@H](CC(=O)O)CC(F)(F)C1 [Example 17, (S)-2-(1-(6-(5-((5-cyclobutyl-2-oxopyridin-1(2H)-yl)methyl)-1-methyl-1H-1,2,3-triazol-4-yl)-2-ethylpyridin-3-yl)-5,5-difluoropiperidin-3-yl)acetic acid] |
| 500 to 5000 | CCc1nc(-c2nnn(C)c2Cn2cc(C3CC3)c(C)cc2=O)ccc1N1C[C@@H](CC(=O)O)CC(F)(F)C1 [Example 18] |
| > 5000 | CCc1nc(-c2nnn(C)c2Cn2cc(C)c(C3CC3)cc2=O)ccc1N1C[C@@H](CC(=O)O)CC(F)(F)C1 [Example 19, (S)-2-(1-(6-(5-((4-cyclopropyl-5-methyl-2-oxopyridin-1(2H)-yl)methyl)-1-methyl-1H-1,2,3-triazol-4-yl)-2-ethylpyridin-3-yl)-5,5-difluoropiperidin-3-yl)acetic acid] |
| > 5000 | CCc1nc(-c2nnn(C)c2Cn2ccc(C#CC3CC3)cc2=O)ccc1N1C[C@@H](CC(=O)O)CC(F)(F)C1 [Example 20, (S)-2-(1-(6-(5-((4-(cyclopropylethynyl)-2-oxopyridin-1(2H)-yl)methyl)-1-methyl-1H-1,2,3-triazol-4-yl)-2-ethylpyridin-3-yl)-5,5-difluoropiperidin-3-yl)acetic acid] |
| 500 to 5000 | CCc1nc(-c2nnn(C)c2Cn2cc(C#CC3CC3)ccc2=O)ccc1N1C[C@@H](CC(=O)O)CC(F)(F)C1 [Example 21, (S)-2-(1-(6-(5-((5-(cyclopropylethynyl)-2-oxopyridin-1(2H)-yl)methyl)-1-methyl-1H-1,2,3-triazol-4-yl)-2-ethylpyridin-3-yl)-5,5-difluoropiperidin-3-yl)acetic acid] |
| 100 to 500 | CCCc1ccc(=O)n(Cc2c(-c3ccc(N4CCC[C@H](CC(=O)O)C4)c(CC)n3)nnn2C)c1 [Example 22, (R)-2-(1-(2-ethyl-6-(1-methyl-5-((2-oxo-5-propylpyridin-1(2H)-yl)methyl)-1H-1,2,3-triazol-4-yl)pyridin-3-yl)piperidin-3-yl)acetic acid] |
| > 5000 | CCCc1ccc(=O)n(Cc2c(-c3ccc(N4CCC[C@@H](CC(=O)O)C4)c(CC)n3)nnn2C)c1 [Example 23, (S)-2-(1-(2-ethyl-6-(1-methyl-5-((2-oxo-5-propylpyridin-1(2H)-yl)methyl)-1H-1,2,3-triazol-4-yl)pyridin-3-yl)piperidin-3-yl)acetic acid] |
| < 100 | CCc1nc(-c2nnn(C)c2Cn2cc(OC3CC3)ccc2=O)ccc1N1C[C@@H](CC(=O)O)CC(F)(F)C1 [Example 24, (S)-2-(1-(6-(5-((5-cyclopropoxy-2-oxopyridin-1(2H)-yl)methyl)-1-methyl-1H-1,2,3-triazol-4-yl)-2-ethylpyridin-3-yl)-5,5-difluoropiperidin-3-yl)acetic acid] |
| 100 to 500 | CCCOc1ccc(=O)n(Cc2c(-c3ccc(N4C[C@@H](CC(=O)O)CC(F)(F)C4)c(CC)n3)nnn2C)c1 [Example 25, (S)-2-(1-(2-ethyl-6-(1-methyl-5-((2-oxo-5-propoxypyridin-1 (2H)-yl)methyl)-1H-1,2,3-triazol-4-yl)pyridin-3-yl)-5,5-difluoropiperidin-3-yl)acetic acid] |
